Test results as given in PMC12690573, “Playing with Structural Parameters in the Design of Ruthenium(II)–p‑Cymene Complexes as Potential Antibacterial Agents” (Inorganic Chemistry, 2025).
≈ marks a conversion by molar mass, not a printed value. Read-outs that look alike come from different tables or passages of the source.

How the values were obtained:
B. subtilis 168 = experiment: Antibacterial susceptibility, broth microdilution (OD600); assay type: cell-based, Bacillus subtilis; conditions: for MIC: B. subtilis 168, MHB, 24 h; for Concentration inducing approximately 50% inhibition of bacterial growth / Antibacterial activity profile (in words): B. subtilis; for Concentration inducing approximately 50% inhibition of bacterial growth: normalized OD600, 24 h; for Antibacterial activity profile (in words): normalized OD600 vs concentration
Source text: (§1) The antibacterial properties of Ru-pCy1–5 were investigated against Burkholderia cenocepacia strains J2315 and K56-2, two well-characterized clinical isolates of this Gram-negative pathogen, as well as against Bacillus subtilis 168, which was used as a model for a Gram-positive bacterial strain.
(§2) The obtained results are presented as normalized OD600 values, reporting the ratio of bacterial growth relative to that of the control (untreated) cells. These are plotted in Figure as a function of the compound concentrations (μg/mL), providing a quantitative assessment of the dose-dependent effects on bacterial growth of the tested ruthenium complexes.
(§3) Antimicrobial susceptibility was assessed in the following strains: B. cenocepacia K56-2 and J2315 and B. subtilis 168. For each bacterial strain, three independent biological replicates were prepared by inoculating Mueller–Hinton Broth (MHB) into sterile culture tubes, followed by overnight incubation at 37 °C with shaking at 130 rpm. Cultures were diluted to a final OD600 of 0.05 per well in 96-well microplates (Sarstedt AG & Co.) and exposed to 10 serial 2-fold dilutions of the compounds, ranging from 256 μg/mL to 0.5 μg/mL. Each biological replicate included three technical replicates. Growth inhibition was assessed visually and quantified by measuring OD600 after 24 h for B. subtilis 168 and after 48 h for B. cenocepacia strains K56-2 and J2315 using a Tecan Infinite 200 PRO plate reader.

[1] = Water–octanol partition coefficient, shake-flask method (Log P pH7.4); assay type: physicochemical; conditions: PBS pH 7.4 / n-octanol, 16 μM
Protocol: The study was performed by using the shake-flask method, obtaining the water–octanol partition coefficients of complexes in PBS buffer at pH = 7.4 (Log P pH7.4), as listed in Table .
The octanol–water distribution coefficients were determined at pH 7.4 using the shake-flask method. , Briefly, solutions of the tested compounds (16 μM) in phosphate buffer (pH 7.4) were mixed with n-octanol in flasks at three different PBS:n-octanol ratios (1:1, 0.5:1, 2:1). The mixtures were manually shaken to allow equilibration between the organic and aqueous phases. Subsequently, phase separation was achieved by centrifugation at 4000 rpm for 10 min. The concentrations of ruthenium compounds in both phases were then determined spectrophotometrically. The log P 7.4 values were calculated as the mean value of the log[Ru-pCy1–5]-oct/[Ru-pCy1–5]PBS/4 values obtained from the three different PBS:n-octanol ratio samples for each complex.

[2] = Stability in CH3CN/PBS solution by UV–vis over 72 h; assay type: physicochemical; conditions: 1 × 10^–5 M in CH3CN/PBS (CH3CN 1% v/v), room temperature
Protocol: To gain insights into the suitability of RACs for biological purposes, their stability in aqueous solution was investigated before studying their interactions with representative proteins (SOD, RNase A, and CytC) by ESI-MS analysis (vide infra). Measurements were performed under strictly controlled conditions (temperature, pH, and complex concentration), namely, at a concentration of 1 × 10^–5 M in CH3CN/PBS solution (CH3CN 1% v/v) at room temperature, over a total of 72 h. The resulting time-dependent absorption profiles are reported in Figure S26 (Supporting Information).
Spectrofluorimetric-grade solvents were used for the preparation of all solutions. The PBS solution (pH 7.4, KCl 2.7 mM, NaCl 140 mM, phosphate 10 mM) was prepared according to the standard procedure. RACs were dissolved in CH3CN and then diluted to reach a final concentration of 1 × 10^–5 M in CH3CN/buffer solution (CH3CN 1% v/v). A PerkinElmer Lambda 900 spectrophotometer was employed to record the UV–Visible absorption spectra using 10 mm path-length quartz cuvettes.

[3] = Aquation (Ru–Cl hydrolysis) followed by UV–vis in aqueous solution; assay type: physicochemical; conditions: neutral pH, 298 K; for k water (aquation rate constant) / t 1/2 (aquation half-life): 10 μM, pseudo-first-order model
Protocol: In view of the well-known lability of the Ru(II)–Cl bond in RACs and considering its relevance for their biological mechanism of action, the aquation process of all systems was investigated. This was performed according to literature methods spectrophotometrically, by registering the UV–vis spectra of freshly prepared aqueous solutions of complexes at neutral pH over different times, up to 12 h, at 298 K. Results for Ru-pCy1 are shown in Figure , while those for the other complexes are reported in Figures S27–S28 Supporting Information. […] The temporal evolution to the aquo-species is also further supported by comparison of spectra collected at increasing time frames and the absorption profile of the aquo species, registered by adding AgNO3 to the metal complex (Figure b). A similar behavior was also observed for the other compounds, confirming their capability to readily lose the chloride ligand. […] Hydrolysis was not observed during the stability experiments (Figure S26), likely being suppressed by the high NaCl concentration in the PBS buffer media (140 mM).
The aquation rate constants (k water) and the corresponding half-lives (t 1/2) were determined by the time-dependent absorbance changes at the MLCT maxima according to a pseudo-first-order kinetic model. The resulting values, reported in Table , range between 2.48 and 5.4 × 10^–4 s^–1.

[4] = biological target: T1, Bovine Pancreatic Ribonuclease A (Bos taurus, UniProt P61823); experiment: ESI-MS protein interaction study with RNase A; assay type: binding; conditions: 1:3 protein to ruthenium ratio, 24 h, 37 °C
T1 construct: Bovine Pancreatic Ribonuclease A (Merck); purchased Merck
T1 sequence (P61823 27-150): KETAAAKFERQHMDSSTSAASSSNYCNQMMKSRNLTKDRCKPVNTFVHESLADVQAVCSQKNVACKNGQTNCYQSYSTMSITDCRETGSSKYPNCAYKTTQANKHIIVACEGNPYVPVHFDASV
Protocol: (§4) Accordingly, ESI-MS spectra of RNase A, SOD, and CytC incubated for 24 h with a 3-fold molar excess of each of the five different ruthenium complexes were recorded. […] This could be exacerbated by the steric hindrance of L3.
(§5) Sample preparation: stock solutions of Bovine Superoxide Dismutase SOD) (Merck), Bovine Pancreatic Ribonuclease A (Merck), and Horse Heart Cytochrome c (Merck) 10^–3 M were prepared by dissolving the lyophilized protein in LC–MS-grade water. Stock solutions 10^–2 M RACs were prepared by dissolving the samples in acetonitrile. For the experiments, an aliquot of the stock solutions of the selected protein was mixed with aliquots of each ruthenium compounds at protein-to-metal ratio 1:3 and diluted with LC–MS-grade water to 100 μM final protein concentration. The mixtures were incubated at 37 °C up to 24 h. After the incubation time, the protein solutions were sampled and diluted to a final protein concentration of 500 nM using LC–MS-grade water and adding 0.1% v/v of formic acid just before the infusion in the mass spectrometer.
(§6) Instrumental parameters: the ESI mass spectra were acquired through direct infusion at 7 μL min^–1 flow rate in a TripleTOF 5600+ high-resolution mass spectrometer (Sciex, Framingham, MA, U.S.A.), equipped with a DuoSpray interface operating with an ESI probe.
RNase: positive polarity, Ionspray Voltage Floating 5500 V, Temperature 0, Ion source Gas 1 (GS1) 40 L/min; Ion source Gas 2 (GS2) 0; Curtain Gas (CUR) 15 L/min, Declustering Potential (DP) 100 V, Collision Energy (CE) 10 V, acquisition range 1000–2600 m/z.
(§7) For acquisition, Analyst TF software 1.7.1 (Sciex) was used, and deconvoluted spectra were obtained by using the Bio Tool Kit microapplication v.2.2 embedded in Peak-ViewTM software v.2.2 (Sciex).

[5] = pKa of coordinated water ligand by UV–vis pH titration; assay type: physicochemical; conditions: absorbance at 435 nm, Henderson–Hasselbalch fit, 298 K
Source text: Lastly, the tendency of the coordinated water ligand to undergo deprotonation was also considered. This has been investigated for the lead compound Ru-pCy1, by recording the UV–vis spectra of batchwise aqueous solutions of the complex at different pH values and monitoring the changes in the MLCT region (Figure S29).
(§8) The acid–base behavior of the coordinated water ligand to the metal scaffold was also considered. To this aim, the UV–vis spectra of batchwise aqueous solutions of the lead compound Ru-pCy1 at different pH at 298 K were registered, and the changes in the MLCT region were monitored. […] A slightly higher value (8.82 ± 0.08) was instead determined potentiometrically under mixed solvent conditions (H2O/EtOH 4:1 v/v, NaClO4 0.1 M, 298 K, ligand concentration 1 mM), required to ensure the full solubilization of the complex.

[6] = pKa of coordinated water ligand, potentiometric; assay type: physicochemical; conditions: H2O/EtOH 4:1 v/v, NaClO4 0.1 M, 298 K, 1 mM
Protocol: as §8

[7] = biological target: T2, Bovine Superoxide Dismutase (SOD) (Bos taurus, UniProt P00442); experiment: ESI-MS protein interaction study with SOD; assay type: binding; conditions: 1:3 protein to ruthenium ratio, 24 h, 37 °C
T2 construct: purchased Merck
T2 sequence (P00442 whole entry): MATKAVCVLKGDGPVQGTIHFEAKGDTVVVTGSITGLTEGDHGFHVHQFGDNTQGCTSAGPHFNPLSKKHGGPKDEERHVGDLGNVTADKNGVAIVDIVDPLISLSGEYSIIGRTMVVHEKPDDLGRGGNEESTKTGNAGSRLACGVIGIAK
Protocol: as §4, §5, §6
SOD: positive polarity, IonSpray Voltage Floating 5500 V, Temperature 0, Ion source Gas 1 (GS1) 40 L/min; Ion source Gas 2 (GS2) 0; Curtain Gas (CUR) 15 L/min, Declustering Potential (DP) 200 V, Collision Energy (CE) 10 V, acquisition range 1500–3500 m/z.
as §7

B. cenocepacia J2315 = experiment: Antibacterial susceptibility, broth microdilution (OD600); assay type: cell-based, Burkholderia cenocepacia; conditions: for MIC: B. cenocepacia J2315, MHB, 48 h
Source text: as §1, §2, §3

B. cenocepacia K56-2 = experiment: as above; assay type: cell-based, Burkholderia cenocepacia; conditions: B. cenocepacia K56-2, MHB, 48 h
Source text: as §1, §2, §3

Horse Heart Cytochrome c = biological target: T3, Horse Heart Cytochrome c (Equus caballus, UniProt P00004); experiment: ESI-MS protein interaction study with CytC; assay type: binding; conditions: 1:3 protein to ruthenium ratio, 24 h, 37 °C
T3 construct: Horse Heart Cytochrome c (Merck); purchased Merck
T3 sequence (P00004 whole entry): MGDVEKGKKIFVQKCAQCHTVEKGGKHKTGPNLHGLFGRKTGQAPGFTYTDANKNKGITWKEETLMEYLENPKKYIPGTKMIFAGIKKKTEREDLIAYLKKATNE
Protocol: as §4, §5
Instrumental parameters: the ESI mass spectra were acquired through direct infusion at 7 μL min^–1 flow rate in a TripleTOF 5600+ high-resolution mass spectrometer (Sciex, Framingham, MA, U.S.A.), equipped with a DuoSpray interface operating with an ESI probe. […]

Compound | MIC (B. subtilis 168) [µg/mL] | Concentration inducing approximately 50% inhibition of bacterial growth (B. subtilis 168) [µg/mL] | Antibacterial activity profile (in words) (B. subtilis 168) | Log P pH7.4 [1] | Stability in aqueous solution [2] | k water (aquation rate constant) [3] | t 1/2 (aquation half-life) [3] [min] | Adduct formation with RNase A [4] | pK a of coordinated water ligand [5] | pK a of coordinated water ligand [6] | Adduct formation with SOD [7] | MIC (B. cenocepacia J2315) [µg/mL] | Concentration inducing approximately 50% inhibition of bacterial growth (B. cenocepacia J2315; B. cenocepacia J2315, normalized OD600, 48 h) [µg/mL] | MIC (B. cenocepacia K56-2) [µg/mL] | Adduct formation with CytC (Horse Heart Cytochrome c) | Ru–Cl hydrolysis (spectral variation over time) ([3]; aqueous solution, up to 12 h) | MIC (B. subtilis 168; Bacillus subtilis, read-out: MIC) [µg/mL] | MIC (B. cenocepacia J2315; Burkholderia cenocepacia, read-out: MIC) [µg/mL] | MIC (B. cenocepacia K56-2; Burkholderia cenocepacia, K562, read-out: MIC) [µg/mL]
Cc1ccc(C(C)C)cc1.F[P-](F)(F)(F)(F)F.[Cl-].[Ru+2].c1ccc2cc3nc4c5cccnc5c5ncccc5c4nc3cc2c1 [Ru-pCy1] | 128 | ~64 | notable inhibitory effect | 0.80 ± 0.30 | moderate tendency to precipitate at the longest time points | 2.5 ± 0.1 × 10^–4 s^–1 | 46.5 ± 2.0 | form stable adducts | 8.3 ± 0.1 | 8.82 ± 0.08 | form stable adducts | 128 | ~32 | 256 | – | – | – | – | –
Cc1ccc(C(C)C)cc1.F[P-](F)(F)(F)(F)F.[Cl-].[Ru+2].c1ccc(-c2ccnc3c2ccc2c(-c4ccccc4)ccnc23)cc1 [Ru-pCy2] | 256 | ~8 | notable inhibitory effect | 0.91 ± 0.30 | – | 4.5 ± 0.2 × 10^–4 s^–1 | 25.7 ± 1.2 | form stable adducts | – | – | form stable adducts | 256 | – | > 256 | – | – | – | – | –
Cc1ccc(C(C)C)cc1.F[P-](F)(F)(F)(F)F.[Cl-].[Ru+2].c1ccc2nc(-c3ccc4ccccc4n3)ccc2c1 [Ru-pCy3] | 256 | – | intermediate antibacterial characteristics | 0.57 ± 0.19 | – | – | – | did not interact | – | – | did not interact | 256 | – | > 256 | did not interact | did not show appreciable variations | – | – | –
O=C(N[C@H](CO)[C@H](O)c1ccc([N+](=O)[O-])cc1)C(Cl)Cl [chloramphenicol, reference compound] | – | – | – | – | – | – | – | – | – | – | – | – | – | – | – | – | 16 (≈ 49.5 µM) | 32 (≈ 99 µM) | 64 (≈ 198 µM)
